Results: patent US11497813B2, “Bortezomib conjugates and methods using same” (Frank EBETINO et al., priority 2015, dated 2022)

System: mouse MPCs
Assay: Osteoblast differentiation of mouse MPCs (ALP staining)
Format: cell-based
Procedure: FIG. 5A is a scheme of an exemplary synthesis of compound BP-Btz1. FIG. 5B is a series of images of bone slices pre-incubated with 1 μM BP-Btz1, Btz, or bisphosphonate (BP) overnight. Drug solutions were removed and bone slices were washed with PBS extensively. […] (BM) cells from UB^G76V-GFP mice were cultured on bone slices in the presence of M-CSF and RANKL for 9 days. Top images (a): GFP^+ cells were observed under a fluorescence microscope and GFP signal intensity was quantified. Middle images (b): bone slices were fixed and subjected to TRAP staining for osteoclasts (OCs). OC #/slice were counted. Bottom images (c): cells were removed from slices. Toluidine blue staining was performed and pit areas/slice were counted. […] The ALP^+ areas were measured by Image J. *P<0.05 vs. Btz-treated cells.
MPCs are cultured in the OB differentiation medium plus or minus Btz, BT-Btz1 or BT-Btz2 (0.1, 0.5, 1, 5, 10 μM) for 1 to 3 weeks. […] The area of ALP+ and mineralized bone nodule is assessed. The expression levels of OB marker genes (ALP, osteocalcin, Runx2) is measured.
1. […] Following proteasome inhibitor administration, Ub^G76V accumulates and GFP fluorescence is readily apparent. GFP^+ OCs were detected at 4 and 8 hrs after adding Btz to OC cultures, which disappeared at 24 hrs. […] The number and area of OCs and resorption pits are assessed. […]

CC(C)C[C@H](NC(=O)[C@H](Cc1ccccc1)NC(=O)c1cnccn1)B1OCCN(CCOC(=O)NC(P(=O)(O)O)P(=O)(O)O)CCO1 [BP-Btz1]
osteoblast differentiation: stimulates osteoblast differentiation
